Laboratory results published in patent US20120015923A1, “USE OF ANDROGRAPHOLIDE COMPOUNDS FOR TREATING INFLAMMATION AND AIRWAY DISORDERS” (NATIONAL UNIVERSITY OF SINGAPORE, priority 2009, published 2012).

Key:
[1] = tested on: NF-κB signaling pathway in normal human bronchial epithelial cells; assay: TNF-α-induced NF-κB activation in normal human bronchial epithelial cells (immunoblotting, TransAM p65 ELISA); type: cell-based; settings: 30 μM
Description: To determine the effects of andrograhpolide on OVA-specific immune responses in lymphocytes, thoracic lymph node cells were grown in bronchial epithelial bulletkit medium (Cambrex BioScience, Walkersvile, Md., USA), supplemented with bovine pituitary extract (2 ml), hydrocortisone (0.5 ml), recombinant human EGF (0.5 ml), epinephrine (0.5 ml), transferrin (0.5 ml), insulin (0.5 ml), retinoic acid (0.5 ml), triiodothyronine (0.5 ml), gentamycin sulfate (50 μg/ml), and amphotericin B (50 ng/ml). The cells were incubated in 5% CO2 incubator at 37° C., and subcultured at 80% to 85% confluency. Cells were exposed to 200 μg/ml OVA for 72 hours. Concanavalin A (Con A, 10 μug/ml) was used as a positive control. Supernatants from parallel triplicate cultures were analyzed for cytokine levels by ELISA. Normal human bronchial epithelial cells were cultured in optimized bronchial epithelial bulletkit medium with supplements (Lonza, Basel, Switzerland). Cells were pretreated with 30 μM andrographolide or vehicle (0.01% DMSO) 4 hours before stimulation with 10 ng/ml tumor necrosis factor (TNF)-α. Total and nuclear proteins, and mRNA were extracted from cells at specified time intervals.
Lung and cell culture nuclear proteins ([…]) were isolated. Lysates were incubated on ice for 30 min before centrifugation (18,000 g for 5 min). The supernatants were collected, and protein concentrations were determined using a BCA protein assay kit. 28 μl of the protein measured were mixed with 7 μl 5× sample buffer and boiled at 95° C. for 5 min. 10% SDS-PAGE gel was set as known in the art. The gel was placed in a Trans-Blot tank (Bio-Rad Laboratories, Hercules, Calif.). 30 μl of the sample mixtures and Pre-stained SDS Page Marker (Bio-Rad Laboratories, Hercules, Calif.) were loaded into respective wells and ran at 100V for 2 hours. The proteins were then transferred to a PVDF membrane using a semi-dry transblotter (ATTO Corp, Tokyo, Japan). The PVDF membrane was blocked with 5% non-fat milk in Tween-20 Tris buffered saline (TTBS) for 2 hours and probed with various primary antibodies in 1% non-fat milk in TTBS (1:2,000 for anti-rabbit antibodies; 1:5,000 for anti-mouse antibodies; 1:10,000 for β-actin) overnight at 4° C. The PVDF was then washed with TTBS for 10 times (2-3 min each), and incubated in HRP- or AP-conjugated anti-mouse or anti-rabbit antibodies for 1 hour. The membrane was again washed with TTBS. For HRP-conjugated antibody, 1 ml each of HRP substrate 1 and substrate 2 were added onto the membrane. For AP-conjugated antibody, 7.5 ml of AP substrates (300 μl AP 25×Buffer, 75 μl Reagent A, 75 μl Reagent B, 7.5 ml water) was added per gel. The data was then developed in the dark on hyperfilms using an ECL reagent. Immunoblots were probed with anti-p65, anti-phospho-p65 (Ser536), and anti-TATA binding protein (TBP, Abcam, Cambridge, UK).
Nuclear proteins were also analyzed for NF-κB DNA-binding activity using the TransAM p65 transcription factor assay kit (Active Motif, Carlsbad, Calif.).

[2] = tested on: lung tissue eosinophilia, mucus secretion and mast cells; assay: Histologic analysis of lung tissue (H&E, PAS, toluidine-blue); type: in vivo, BALB/c mice; settings: OVA-challenged mice; for lung tissue eosinophilia / eosinophil-rich leukocyte infiltration (H&E): vs DMSO control
Description: Lungs were fixed in 10% neutral formalin, paraffinized, cut into 6-μm sections, and stained with hematoxylin and eosin (H&E) for examining cell infiltration and with periodic acid-Schiff stain (PAS) for measuring mucus production. Quantitative analysis was performed blinded as described below. Mast cells were detected in lung tissue using toluidine-blue staining, and the number of mast cells was counted in paraffin sections. The percentage of degranulated mast cells in the lung was calculated by counting the number of cells with 10% of extrusion of granules.
For both H&E and PAS staining, bronchioles selected for analysis were of similar structure and sizes, with clear morphology presentations and minimum disruptions of the surrounding tissues that could be formed during sectioning. The scoring of inflammatory and globlet cells was performed in 2-4 preparations of each mouse and mean scores were calculated from 4-5 mice. Peribronchial cell counts were performed in a blind manner and scored as known in the art. A five-point scoring system (0-4) was adapted: 0, no cells; 1, a few cells; 2, a ring of cells one cell layer deep; 3, a ring of cells two to four cells deep; 4, a ring of cells more than four cells deep. Goblet cell hyperplasia in the airway epithelium was assessed blind and scored according to the percentage of PAS-positive mucus-producing cells. A five-point (0-4) grading system was as follows: 0, no goblet cells; 1, <25%; 2, 25-50%; 3, 50-75%; 4, >75%. Briefly, to determine the severity of inflammatory cell infiltration, peribronchial cell counts were performed blind based on a 5-point scoring system: 0, no cells; 1, a few cells; 2, a ring of cells 1 cell layer deep; 3, a ring of cells 2-4 cells deep; 4, a ring of cells of >4 cells deep. To determine the extent of mucus production, goblet cell hyperplasia in the airway epithelium was quantified blind using a 5-point grading system: 0, no goblet cells; 1, <25%; 2, 25-50%; 3, 50-75%; 4, >75%. Scoring of inflammatory cells and goblet cells was performed in at least 3 different fields for each lung section. Mean scores were obtained from 4 animals. *Significant difference from DMSO control, P<0.05.

[3] = 10 ng/ml TNF-α for 5, 15 and 30 minutes

SMILES	TNF-α-induced IκBα degradation [1, 3]	TNF-α-induced p65 subunit of NF-κB phosphorylation [1, 3]	TNF-α-induced phosphorylation of IKKβ [1, 3]	IκB phosphorylation ([1]; 10 ng/ml TNF-α)	TNF-α-induced p65 DNA-binding activity ([1]; TNF-α for 30 minutes)	TNF-α-induced p65 nuclear translocation ([1]; TNF-α for 30 minutes)	E-selectin [2]	VCAM-1 [2]	airway mucus production / mucus hypersecretion (PAS) ([2]; 1 mg/kg)	lung tissue eosinophilia / eosinophil-rich leukocyte infiltration (H&E) ([2]; 1 mg/kg)	TNF-α-induced p65 DNA-binding ([1]; 10 ng/ml TNF-α for 5 minutes)	TNF-α-induced p65 nuclear translocation ([1]; 10 ng/ml TNF-α for 5 minutes)	total degranulating mast cell counts in toluidine-blue staining lung section ([2]; 1 mg/kg, vs DMSO vehicle control)
C=C1CC[C@@H]2[C@](C)(CO)[C@H](O)CC[C@@]2(C)[C@@H]1C/C=C1/C(=O)OC[C@H]1O [Andrographolide]	blocked	blocked	blocked	inhibition	blocked	blocked	inhibited	inhibited	attenuated	attenuated			
C=C1CCC2C(C)(CO)C(O)CCC2(C)C1C=CC1=CCOC1=O (stereo not drawn) [DDAG, 14-Deoxy-11,12-didehydroandrographolide]									significantly halted	markedly diminished	markedly abated	markedly abated	drastically decreased
